From patent publication US9833497B2, “Human originated EGF domain proteins and use of the same” (CHENGDU SOURCEBIO LIMITED-LIABILITY COMPANY, priority 2013, dated 2017)

Key:
Type in all cases: cell-based
Enterobacter cloacae = assay: MIC against Gram-negative bacteria: Enterobacter cloacae; conditions: 5×10^5 CFU/mL
How it was run: (§1)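 Two-fold serial dilutions of each purified human EGF domain protein, three replicate wells per level, were combined with bacteria at a final 5×10^5 CFU/mL in LB. Cultures were shaken at 175 rpm, 37° C. The MIC was taken as the minimum concentration preventing growth.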

Moraxella catarrhalis = assay: MIC against Gram-negative bacteria: Moraxella catarrhalis; conditions: 5×10^5 CFU/mL
How it was run: as §1

Serratia marcescens = assay: MIC against Gram-negative bacteria: Serratia marcescens; conditions: 5×10^5 CFU/mL
How it was run: as §1

Aeromonas hydrophila = assay: MIC against Gram-negative bacteria: Aeromonas hydrophila; conditions: 5×10^5 CFU/mL
How it was run: as §1

Citrobacter diversus = assay: MIC against Gram-negative bacteria: Citrobacter diversus; conditions: 5×10^5 CFU/mL
How it was run: as §1

Proteus mirabilis = assay: MIC against Gram-negative bacteria: Proteus mirabilis; conditions: 5×10^5 CFU/mL
How it was run: as §1

E. coli BL21 = assay: MIC against Gram-negative bacteria: E. coli BL21; conditions: 5×10^5 CFU/mL
How it was run: as §1

Klebsiella pneumonia = assay: MIC against Gram-negative bacteria: Klebsiella pneumonia; conditions: 5×10^5 CFU/mL
How it was run: as §1

Pseudomonas aeruginosa = assay: MIC against Gram-negative bacteria: Pseudomonas aeruginosa; conditions: 5×10^5 CFU/mL
How it was run: as §1

E. coli DH5α = assay: Antibacterial activity: MIC and growth curve against E. coli DH5α in 96-well plate; conditions: minimal inhibitory concentration against E. coli DH5α; 96-well plate, 5×10^5 CFU/mL, 37° C., judged after 8 h
How it was run: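 Log-phase bacteria (OD600 ~0.5) resuspended in LB at 5×10^5 CFU/mL, exposed to recombinant protein at 50, 25, 12.5 μg/mL final in triplicate, 37 °C shaking at 175 rpm. OD600 read every 30 min; MIC is lowest concentration showing no growth.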

Proteus vulgaris = assay: MIC against Gram-negative bacteria: Proteus vulgaris; conditions: 5×10^5 CFU/mL
How it was run: as §1

[1] = 10 h cultivation at 37° C., two-fold serial dilution
[2] = Enterobacter cloacae, 96-well plate, 37° C., 10 h
[3] = Moraxella catarrhalis, 96-well plate, 37° C., 10 h
[4] = Serratia marcescens, 96-well plate, 37° C., 10 h
[5] = Aeromonas hydrophila, 96-well plate, 37° C., 10 h
[6] = Citrobacter diversus, 96-well plate, 37° C., 10 h
[7] = Proteus mirabilis, 96-well plate, 37° C., 10 h
[8] = E. coli BL21, 96-well plate, 37° C., 10 h
[9] = Klebsiella pneumonia, 96-well plate, 37° C., 10 h
[10] = Pseudomonas aeruginosa, 96-well plate, 37° C., 10 h
[11] = Proteus vulgaris, 96-well plate, 37° C., 10 h

PRT1113 (HVDPCHSAPCARGRCHTHPDGRFECRCPPGFGGPRCR; listed as Homo sapiens)
25 µg/mL: MIC S. marcescens (Serratia marcescens; [1]) | MIC P. mirabilis (Proteus mirabilis; [1])
50 µg/mL: MIC C. diversus (Citrobacter diversus; [1]) | MIC P. vulgaris (Proteus vulgaris; [1])
12.5 µg/mL: MIC E. cloacae (Enterobacter cloacae; [1]) | MIC M. catarrhalis (Moraxella catarrhalis; [1]) | MIC A. hydrophila (Aeromonas hydrophila; [1]) | MIC E. coli BL21 (E. coli BL21; [1]) | MIC K. pneumonia (Klebsiella pneumonia; [1]) | MIC P. aeruginosa (Pseudomonas aeruginosa; [1]) | MIC (E. coli DH5α)

PRT1203 (DIDECAEGRHYCRENTMCVNTPGSFMCICKTGYIRIDDYSCT; listed as Homo sapiens)
12.5 µg/mL: MIC against E. cloacae (Enterobacter cloacae; [2]) | MIC against C. diversus (Citrobacter diversus; [6]) | MIC against P. mirabilis (Proteus mirabilis; [7]) | MIC against E. coli BL21 (E. coli BL21; [8])
50 µg/mL: MIC against M. catarrhalis (Moraxella catarrhalis; [3]) | MIC against S. marcescens (Serratia marcescens; [4]) | MIC against A. hydrophila (Aeromonas hydrophila; [5]) | MIC against P. aeruginosa (Pseudomonas aeruginosa; [10])
25 µg/mL: MIC against K. pneumonia (Klebsiella pneumonia; [9]) | MIC (E. coli DH5α) | MIC against P. vulgaris (Proteus vulgaris; [11])

PRT1325 (TEDNCNGTCHTSANCLTNSDGTASCKCAAGFQGNGTICT; listed as Homo sapiens)
25 µg/mL: MIC against E. cloacae (Enterobacter cloacae; [2]) | MIC against S. marcescens (Serratia marcescens; [4]) | MIC against A. hydrophila (Aeromonas hydrophila; [5]) | MIC against P. mirabilis (Proteus mirabilis; [7]) | MIC against P. aeruginosa (Pseudomonas aeruginosa; [10])
12.5 µg/mL: MIC against M. catarrhalis (Moraxella catarrhalis; [3]) | MIC against C. diversus (Citrobacter diversus; [6]) | MIC against E. coli BL21 (E. coli BL21; [8]) | MIC against K. pneumonia (Klebsiella pneumonia; [9]) | MIC (E. coli DH5α) | MIC against P. vulgaris (Proteus vulgaris; [11])

PRT567 (CTCDPAGSQNEGICDSYTDFSTGLIAGQCRCKLNVEGEHCDVCKEGFYDLSSEDPFGCKS; listed as Homo sapiens)
50 µg/mL: MIC against E. cloacae (Enterobacter cloacae; 96-well plate, 37° C., 10 h) | MIC against M. catarrhalis (Moraxella catarrhalis; 96-well plate, 37° C., 10 h) | MIC (E. coli DH5α)
12.5 µg/mL: MIC against S. marcescens (Serratia marcescens; 96-well plate, 37° C., 10 h) | MIC against C. diversus (Citrobacter diversus; 96-well plate, 37° C., 10 h) | MIC against P. mirabilis (Proteus mirabilis; 96-well plate, 37° C., 10 h) | MIC against P. aeruginosa (Pseudomonas aeruginosa; 96-well plate, 37° C., 10 h) | MIC against P. vulgaris (Proteus vulgaris; 96-well plate, 37° C., 10 h)
25 µg/mL: MIC against A. hydrophila (Aeromonas hydrophila; 96-well plate, 37° C., 10 h) | MIC against E. coli BL21 (E. coli BL21; 96-well plate, 37° C., 10 h) | MIC against K. pneumonia (Klebsiella pneumonia; 96-well plate, 37° C., 10 h)

PRT525 (CNCNRDGTEPGVCDPGTGACLCKENVEGTECNVCREGSFHLDPANLKGCTS; listed as Homo sapiens)
12.5 µg/mL: MIC against A. hydrophila (Aeromonas hydrophila; 96-well plate, 37° C., 10 h) | MIC against E. coli BL21 (E. coli BL21; 96-well plate, 37° C., 10 h) | MIC against P. vulgaris (Proteus vulgaris; 96-well plate, 37° C., 10 h)
50 µg/mL: MIC against M. catarrhalis (Moraxella catarrhalis; 96-well plate, 37° C., 10 h) | MIC against K. pneumonia (Klebsiella pneumonia; 96-well plate, 37° C., 10 h)
25 µg/mL: MIC against E. cloacae (Enterobacter cloacae; 96-well plate, 37° C., 10 h) | MIC against S. marcescens (Serratia marcescens; 96-well plate, 37° C., 10 h) | MIC against C. diversus (Citrobacter diversus; 96-well plate, 37° C., 10 h) | MIC against P. mirabilis (Proteus mirabilis; 96-well plate, 37° C., 10 h) | MIC against P. aeruginosa (Pseudomonas aeruginosa; 96-well plate, 37° C., 10 h) | MIC (E. coli DH5α)

PRT1493 (QQAECPGGCRNGGFCNERRICECPDGFHGPHCE; listed as Homo sapiens)
100 µg/mL: MIC (E. coli DH5α)
12.5 µg/mL: MIC against E. cloacae (Enterobacter cloacae; Enterobacter cloacae, 10 h cultivation at 37° C.) | MIC against K. pneumonia (Klebsiella pneumonia; Klebsiella pneumonia, 10 h cultivation at 37° C.) | MIC against P. aeruginosa (Pseudomonas aeruginosa; Pseudomonas aeruginosa, 10 h cultivation at 37° C.)
50 µg/mL: MIC against S. marcescens (Serratia marcescens; Serratia marcescens, 10 h cultivation at 37° C.) | MIC against A. hydrophila (Aeromonas hydrophila; Aeromonas hydrophila, 10 h cultivation at 37° C.) | MIC against C. diversus (Citrobacter diversus; Citrobacter diversus, 10 h cultivation at 37° C.) | MIC against P. mirabilis (Proteus mirabilis; Proteus mirabilis, 10 h cultivation at 37° C.)
25 µg/mL: MIC against M. catarrhalis (Moraxella catarrhalis; Moraxella catarrhalis, 10 h cultivation at 37° C.) | MIC against E. coli BL21 (E. coli BL21; E. coli BL21, 10 h cultivation at 37° C.) | MIC against P. vulgaris (Proteus vulgaris; Proteus vulgaris, 10 h cultivation at 37° C.)
